Reference: patent publication US11021445B2, “Carboxylic acid derivative as AT2R receptor antagonist” (SHANDONG DANHONG PHARMACEUTICAL CO., LTD., priority 2017, dated 2021)
Converted amounts (≈) assume the structure as drawn.

Experiments:
[1] = Determination of kinetic solubility; assay type: physicochemical; details: buffer solution pH 7.4, aqueous buffer, kinetic from dmso stock, pH 7.4, 24 hours at room temperature, theoretical maximum 200 μM
Description: The to-be-tested compound was dissolved in DMSO to prepare a 10 mmol/L stock solution. 980 μL of dissolution medium was pipetted into a 2 mL screw-capped glass vial by using a pipette (Eppendorf Research Company). 20 μL of the stock solution of each test compound and the QC sample were added to a buffer solution corresponding to a kinetic detection solution of pH 7.4. The final concentrations of the test compound and DMSO solution were 200 μM and 2%, respectively. The cover of the medicine bottle was screwed. The theoretical maximum concentration is 200 μM. The mixture was shaken at 880 rpm for 24 hours at room temperature. The vial was centrifuged for 30 minutes at 13,000 rpm. 200 μL of the supernatant was added to a 96-well plate by using a digital pipette. The solubility of the test compound was determined by high performance liquid chromatography, and the experimental results are shown in Table 2.

[2] = Two-way permeability study in Caco-2 cells; assay type: in vitro ADME; details: human; for efflux ratio at 120 min: pH 7.4; for Papp A→B at 120 min: pH 7.4, A-B direction; for Papp B→A at 120 min: pH 7.4, B-A direction
Description: The two-way permeability of the to-be-tested compound in Caco-2 cells was measured, and whether the to-be-tested compound was transported by efflux or not was tested.
The compound is dissolved in dimethyl sulfoxide (DMSO) or other suitable solvent to prepare a stock solution of the appropriate concentration.
A suitable internal standard (IS) is dissolved in acetonitrile (ACN) or other organic solvent to be used as a stop solution. The specific information will be described in the research report.
Nadolol, metoprolol, digoxin, estrone 3-sulfate potassium (E3S) and GF120918 were used as a hypotonic control compound, a hypertonic control compound, a P-glycoprotein (P-gp) substrate, a breast cancer resistance protein (BCRP) substrate, and an efflux transporter inhibitor in this study. Stock solutions of these compounds are prepared with DMSO and stored at ≤−30° C., and used within 6 months.
In this study, HBSS (Hanks Balanced Salt Solution) containing 10 mM HEPES (2-[4-(2-hydroxyethyl)-1-piperazine]ethanesulfonic acid) was used as a transport buffer (pH 7.40*0.05).
Caco-2 cells were cultured in an MEM medium (Minimum Essential Media) under the conditions of 37±1° C., 5% CO2 and saturated humidity. The cells were then seeded in a Corning Transwell-96 well plate at a density of 1×10^5 cells/cm^2, and then the cells were placed in a carbon dioxide incubator for culture for 21-28 days for transport experiments. The medium was changed once every 5-6 days during culture.
Compounds were administered at concentrations of 2, 10 and 100 μM and were administered in both directions (A-B and B-A directions) with or without 10 μM GF120918, and there are three parallels for each administration concentration. Digoxin and E3S were tested at the concentration of 10 μM and 5 μM, respectively, and administered bidirectionally with or without 10 μM GF120918. The test concentrations of nadolol and metoprolol were 2 μM, and nadolol and metoprolol were administered unidirectionally (the A-B direction) without 10 μM GF120918. The three control compounds were also made in three parallels.
The administration solution, receiving solution and transport buffer were pre-incubated for 30 minutes at 37° C. The cell layer was rinsed twice with the transport buffer. The administration solution and the receiving solution were separately added to the corresponding cell plate wells (75 μL and 250 μL, respectively, for each of the top and base end wells). After sampling, the cell plates were incubated for 120 minutes in an incubator at 37±1° C., 5% CO2 and saturated humidity.
After all the compounds were subjected to vortex oscillation, the compounds after vortex oscillation were centrifuged at 3220×g, and 20° C. for 20 minutes, the appropriate volume of the supernatant was transferred to a sample analysis plate, and after the plate was sealed, the compounds were stored at 2-8° C. if the compounds were not immediately analyzed. The analysis was carried out by the method of LC/MS/MS, and the specific compound treatment method is shown in the research report.
The Lucifer Yellow Rejection Assay was used to test the integrity of Caco-2 cells. Six cell wells were randomly selected from each cell plate, and 100 μM Lucifer Yellow was added respectively. The Lucifer Yellow Rejection Assay and the transport experiment were performed simultaneously. After 120 minutes of incubation, a Lucifer Yellow sample was taken and the relative fluorescence unit (RFU) of the Lucifer Yellow in the sample was detected at a 425/528 nm (excitation/emission) spectrum.
The concentrations of the to-be-tested compound and the control compounds nadolol, metoprolol, digoxin and E3S in the samples were determined by liquid chromatography-tandem mass spectrometry (LC/MS/MS). The retention time of the analyte and internal standard, chromatogram acquisition and chromatogram integration were processed by using the software Analyst (AB Sciex, Framingham, Mass., USA).

| SMILES | solubility at 24 h [1] | efflux ratio at 120 min [2] | Papp A→B at 120 min [2] | Papp B→A at 120 min [2] |
| --- | --- | --- | --- | --- |
| COc1ccc2c(c1OCc1ccccc1)C[C@@H](C(=O)O)N(C(=O)[C@@H](OC1CC(F)(F)C1)c1ccccc1)C2 [Compound 51] | 190 µM (≈ 102 µg/mL) |  |  |  |
| COc1ccc2c(c1OCc1ccccc1)C[C@@H](C(=O)O)N(C(=O)[C@@H](OC1(C)CCCC1)c1ccccc1)C2 [Compound 57] |  | 26.3 | 0.67 ×10⁻⁶ cm/s | 17.7 ×10⁻⁶ cm/s |
| O=C(O)[C@@H]1Cc2c(ccc(Cl)c2OCc2ccccc2)CN1C(=O)[C@@H](OC1CCCC1)c1ccccc1 [Compound 107] | 181 µM (≈ 94.2 µg/mL) | 13.1 | 0.48 ×10⁻⁶ cm/s | 6.24 ×10⁻⁶ cm/s |
| COc1ccc2c(c1OCc1ccccc1)C[C@@H](C(=O)O)N(C(=O)C(c1ccccc1)c1ccccc1)C2 [EMA-401, reference compound] | 192 µM (≈ 97.3 µg/mL) |  | 0.11 ×10⁻⁶ cm/s | 6.4 ×10⁻⁶ cm/s |

More lines, now with the values ahead:

| solubility at 24 h [1] | efflux ratio at 120 min [2] | Papp A→B at 120 min [2] | Papp B→A at 120 min [2] | SMILES |
| --- | --- | --- | --- | --- |
| > 200 µM | 32.5 | 0.27 ×10⁻⁶ cm/s | 8.68 ×10⁻⁶ cm/s | COc1ccc2c(c1OCc1ccccc1)C[C@@H](C(=O)O)N(C(=O)[C@@H](OC1CCCC1)c1ccccc1)C2 [Compound 37] |
| 190 µM (≈ 104 µg/mL) |  |  |  | COc1ccc2c(c1OCc1ccccc1)C[C@@H](C(=O)O)N(C(=O)[C@@H](O[C@H]1CC[C@@H](O)CC1)c1ccccc1)C2 [Compound 63] |
